molecular target: human S1P1 receptor (Homo sapiens (Human), UniProt P21453); test: GTP γ35S binding assay; format: biochemical; settings: S1P1 receptor from GTP γ35S; membranes of cells stably expressing the S1P1 receptor
Procedure: The S1P1 activity of the compounds according to the invention, were tested using the GTP γ^35S binding assay. The compounds were assessed for their ability to activate or block activation of the human S1P1 receptor in cells stably expressing the S1P1 receptor.
GTP γ^35S binding was measured in the medium containing (mM) HEPES 25, pH 7.4, MgCl2 10, NaCl 100, dithiothreitol 0.5, digitonin 0.003%, 0.2 nM GTP γ^35S, and 5 μg membrane protein in a volume of 150 μl. Test compounds were included in the concentration range from 0.08 to 5,000 nM unless indicated otherwise. Membranes were incubated with 100 μM 5′-adenylylimidodiphosphate for 30 min, and subsequently with 10 μM GDP for 10 min on ice. Drug solutions and membrane were mixed, and then reactions were initiated by adding GTP γ^35S and continued for 30 min at 25° C. Reaction mixtures were filtered over Whatman GF/B filters under vacuum, and washed three times with 3 mL of ice-cold buffer (HEPES 25, pH7.4, MgCl2 10 and NaCl 100). Filters were dried and mixed with scintillant, and counted for ^35S activity using a 8-counter. Agonist-induced GTP γ^35S binding was obtained by subtracting that in the absence of agonist. Binding data were analyzed using a non-linear regression method. In case of antagonist assay, the reaction mixture contained 10 nM S1P in the presence of test antagonist at concentrations ranging from 0.08 to 5000 nM.
S1P1 receptor from GTP γ^35S: nM, (EC50),

human S1P1 receptor, sequence (P21453 whole entry): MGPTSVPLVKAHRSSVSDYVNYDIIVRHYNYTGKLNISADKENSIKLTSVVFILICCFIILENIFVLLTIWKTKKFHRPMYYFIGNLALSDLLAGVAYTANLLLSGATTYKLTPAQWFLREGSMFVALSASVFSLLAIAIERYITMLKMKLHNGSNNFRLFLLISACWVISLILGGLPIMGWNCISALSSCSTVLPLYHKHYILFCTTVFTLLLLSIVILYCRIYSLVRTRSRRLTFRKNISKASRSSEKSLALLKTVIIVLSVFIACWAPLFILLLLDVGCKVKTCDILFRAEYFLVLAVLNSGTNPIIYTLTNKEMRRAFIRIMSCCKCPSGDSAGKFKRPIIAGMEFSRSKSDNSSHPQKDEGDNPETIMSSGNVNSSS

EC50 [nM] | SMILES
26.4 | CCCc1c(OC)ccc2cc(C(=O)Nc3ccccc3Br)c(=O)oc12 [Compound 5, N-(2-bromophenyl)-7-methoxy-2-oxo-8-propyl-2H-chromene-3-carboxamide]
19 | CCCc1c(OC)ccc2cc(C(=O)Nc3ccncc3Br)c(=O)oc12 [Compound 6, N-(3-bromopyridin-4-yl)-7-methoxy-2-oxo-8-propyl-2H-chromene-3-carboxamide]
3.5 | CCCc1c(OC)ccc2cc(C(=O)Nc3ccc(S(N)(=O)=O)cc3Br)c(=O)oc12 [Compound 38, N-[4-(aminosulfonyl)-2-bromophenyl]-7-methoxy-2-oxo-8-propyl-2H-chromene-3-carboxamide]
3.1 | CCCc1c(OC)ccc2cc(C(=O)Nc3ccc(NC(=O)[C@H](N)CCC(=O)O)cc3C)c(=O)oc12 [Compound 62, (4R)-4-amino-5-[(4-{[(7-methoxy-2-oxo-8-propyl-2H-chromen-3-yl)carbonyl]amino}-3-methylphenyl)amino]-5-oxopentanoic acid]

Source: patent US9572792B2, “Coumarin compounds as receptor modulators with therapeutic utility” (Allergan, Inc., priority 2009, dated 2017)
